Experimental findings from paper PMC5870190, “A three-in-one-bullet for oesophageal cancer: replication fork collapse, spindle attachment failure and enhanced radiosensitivity generated by a ruthenium(II) metallo-intercalator” (Chemical Science, 2017) are described below.

Test [1] concerns OE21 human oesophageal squamous cell carcinoma. Description: MTT assay, OE21 cells. The format is cell-based. The settings on record: for IC50: MTT. The method, then: (§1) MTT assay. OE21, FLO-1 or hSAEC1-KT cells were seeded in 96 well plates at 20,000 cells/well (for 24 h treatment) or 10,000 cells/well (for 72 h treatment) and allowed to adhere for 24 h before treatment. OE33 cells were seeded in 48 well plates at 40,000 cells/well (24 h treatment) or 20,000 cells/well (72 h treatment). Cancer cell lines were treated with chemicals dissolved in RPMI media for consistency. After incubation, 0.5 mg/ml MTT (thiazolyl blue tetrazolium bromide) dissolved in serum-free medium was added for 60 minutes and the formazan product eluted using acidified isopropanol.
(§2) The absorbance at 540 nm was quantified by plate reader (reference wavelength 650 nm). The metabolic activity of the cell population was determined as a percentage of a negative (solvent) control. […]
(§3) For the determination of mutation induction, from the untreated and each treated condition, 2x10^5 cells were plated in 10 x 100 mm dishes in selective media (regular media

Test [2] deals with OE33 human oesophageal adenocarcinoma. Description: MTT assay, OE33 cells. The test is classed as cell-based. The protocol: as §1, §2, §3
(Tetrazolium dyes change colour on reduction, which living cells bring about.)

For test [3], the system named is FLO-1 human oesophageal adenocarcinoma. Description: MTT assay, FLO-1 cells. The format is cell-based. The protocol:
as §1, §2, §3

Test [4] deals with hSAEC1-KT normal human small airway epithelial cells. Description: MTT assay, hSAEC1-KT cells. The format is cell-based. The protocol:
as §1, §2, §3

For test [5], the system named is OE21 cells. Description: DNA fibre assay (replication fork progression). The format is cell-based, human. The method, then:
DNA fibre assay. The DNA fibre assay was performed as described previously.5 Briefly, OE21 cells were labelled with 30 µM CldU for 30 mins and then 250 µM IdU for an additional 30 mins. Either Ru1 (21 µM) or dppz (7 µM) was added during the second (IdU) nucleotide step (30 mins). DNA replication was terminated using ice-cold PBS and cells lysed (200 mM Tris-HCl pH 7.4, 50 mM EDTA and 0.5% SDS). DNA fibres were spread onto glass slides, fixed with methanol:acetic acid (3:1) and denatured with 2.5 M HCl. After blocking with 2% BSA, fibres were stained with anti-rat and anti-mouse 5-bromo-2′- deoxyuridine (BrdU) that specifically recognise either CldU (Abcam, dilution 1:500) or IdU (BD Sciences, 1:100). Anti-rat Cy3 (Jackson Immuno Research, 1:300) and anti-mouse Alexa-488 (Molecular Probes, 1:300) were used as the respective secondary antibodies. CldU- and IdU-labelled tracts were visualised using a Leica DMRB microscope with a DFC360FX camera and tract length measured by ImageJ software. Statistical analysis was performed by GraphPad Prism software using an unpaired t-test.
Western blotting. Treated samples were washed with cold PBS and lysed in RIPA (radioimmunoprecipitation assay) buffer containing protease inhibitors (10 μg/mL leupeptin, 2 μg/mL pepstatin, 50 μg/mL antipain, 2 μg/mL aprotinin, 20 μg/mL chyprostatin, 2 μg/mL benzamidine, 1 mM phenylmethanesulfonyl fluoride) and phosphatase inhibitors (50 mM NaF, 1 mM […]
Bis-Tris gels and LDS-PAGE. Gels were transferred onto nitrocellulose membrane and probed with primary antibodies in 5% BSA (bovine serum albumin) solutions at the following dilutions: 1/1000 dilution for majority of Cell Signaling antibodies and γH2AX. 1/500 for anti-p-ATR and anti-cleaved caspase 3. 1/200 anti-Chk1. 1/5000-1/10,000 anti- α-tubulin or β-actin.
Reactions were visualised with a suitable secondary antibody conjugated with horseradish peroxidase (1/5000 dilution, Thermo). […]

The subject of test [6] is OE21 cells. Description: Cell-cycle analysis by flow cytometry. The test is classed as cell-based, human. The settings on record: OE21, 7 μM, 24 h. The method, then: phototoxic contribution to bio-activity. Doxorubicin (Sigma) was prepared in doubly-distilled water (10 mg/mL, 17.4 mM).
[Ru(phen)2(dppz)]2+ (2 mM) was prepared in doubly-distilled water.
Sub-cellular fractionation. OE21 or OE33 cells were treated in 12 well plates, washed with cold PBS (2x2 mls) and nuclear and cytosol fractions obtained using the Nuclei EZ Lysis kit (Sigma). Briefly, cells were washed with acidified PBS (pH 2.5) to remove the membrane-bound fraction and 0.4 ml EZ lysis buffer was added. Cells were detached by scraping, collected into eppendorfs, vortexed briefly and left for 5 minutes on ice. Samples were centrifuged (500g, 5 mins) and the supernatant (cytosol fraction) aspirated. The pellet (nuclear fraction) was re-suspended in 200 µl RIPA buffer. […] Ruthenium content was determined by ICP-MS analysis as described in a recent […]
DNA fibre assay. […] CldU- and IdU-labelled tracts were visualised using a Leica DMRB microscope with a DFC360FX camera and tract length measured by ImageJ software. […]
Western blotting. […] Protein content was determined by BCA assay. […]
AnnexinV staining. […] This was incubated for 15 mins at room temperature, 400 µl binding buffer added and analysed by flow cytometry (FL1 and FL3 channels for FITC and PI respectively). […]
In general terms: A flow cytometer gives signals particle by particle.

Test [7] concerns OE21 cells. Description: Clonogenic survival assay with IR, OE21. The settings on record: Ru1 2 μM or Cis 500 nM for 24 h before IR. The test is classed as cell-based, human. The method, then:
(§4) Clonogenic survival assay. OE21, OE33 or FLO1 cells were treated with 2 µM Ru1 for 24 h before irradiation with 0-8 Gy using a 137Cs γ-irradiator (IBL637, CIS Bio Int.; dose rate = 0.809 Gy min−1). 1 h after irradiation, cells were detached using Trypsin and re-seeded in 6 well plates at a density of 300 – 20,000 cells/well in triplicate in an incrementally greater number of cells with increasing IR dose to ensure adequate colony formation. Cells were incubated for 7–14 days after re-seeding to allow colony formation before being fixed with 10% methanol, 10% acetic acid and stained with 0.4% methylene blue. OE33 cells required an additional formaldehyde fixation (4% in PBS, 5 mins) step before the addition of methylene blue solution or colony detachment occurred. Colonies containing 50 cells or greater were counted using a Gelcount instrument and accompanying software (Oxford Optronix). Plating efficiencies were determined for each treatment condition and normalised to an untreated control to provide the surviving fraction (S. F.). S.F. versus radiation dose curves were plotted in GraphPad Prism and fit using a second order polynomial function (R2 values > 0.99). Dose modifying factors (DMF) at a SF=0.1 were calculated using the equation: Dose modifying factor (DMF) = IR dose to give S.F. 0.1/IR dose plus compound to give S.F.0.1. […]

Another test concerns FLO-1 cells. Description: Clonogenic survival assay with IR, FLO-1. The note with it: Ru1 2 μM or Cis 300 nM for 24 h before IR. The test is classed as cell-based, human. The protocol:
as §4

Test [8] has as its system OE21, OE33 or FLO-1 cells. Description: Clonogenic survival assay with IR, three oesophageal cancer cell lines. The format is cell-based, human. The settings on record: Ru1 2 μM or sub-cytotoxic cisplatin (500 nM OE21 and OE33, 300 nM FLO-1), 24 h before IR; range over three cell lines. The method, then:
as §4

For another test, the system named is OE33 cells. Description: Clonogenic survival assay with IR, OE33. The test is classed as cell-based, human. The note with it: Ru1 2 μM or Cis 500 nM for 24 h before IR. The method, then:
as §4

Take `COc1cccc2c1C(=O)c1c(O)c3c(c(O)c1C2=O)C[C@@](O)(C(=O)CO)C[C@@H]3O[C@H]1C[C@H](N)[C@H](O)[C@H](C)O1` [DOX, doxorubicin]: in [1] (72 h exposure), the “reduction in potency towards OE21 cells compared to OE33 or FLO-1 cells” value is “three-fold”. The IC50 (as a rule, the concentration at which inhibition is half-maximal) was found to be 4.2 ± 0.3 µM in [1] (Homo sapiens, Table S2, OE21, 24 h constant incubation); 0.21 ± 0.07 µM in test [1] (Homo sapiens, Table S2, OE21, 72 h constant incubation); 8.1 ± 2.7 µM in test [2] (Homo sapiens, Table S2, OE33, 24 h constant incubation); 0.07 ± 0.03 µM in test [2] (Homo sapiens, Table S2, OE33, 72 h constant incubation); 6.1 ± 1.9 µM in test [3] (Homo sapiens, FLO-1, Table S2, FLO1, 24 h constant incubation); 0.05 ± 0.02 µM in test [3] (Homo sapiens, FLO-1, Table S2, FLO1, 72 h constant incubation).
For `c1ccc2nc3c4cccnc4c4ncccc4c3nc2c1` [dppz, dipyridophenazine], the IC50 in test [4] (Homo sapiens, Epithelial cell, 24 h constant exposure) is above 10 µM; in [4] (Homo sapiens, Epithelial cell, 72 h constant exposure), above 10 µM; in test [1] (Homo sapiens, OE21, 24 h constant exposure), 6.5 ± 2.1 µM; in test [1] (Homo sapiens, OE21, 72 h constant exposure), 3.3 ± 0.4 µM; in [2] (Homo sapiens, OE33, 24 h constant exposure), 6.6 ± 2 µM; in test [2] (Homo sapiens, OE33, 72 h constant exposure) it was 5.7 ± 0.9 µM. Further, the IC50 in [3] (Homo sapiens, FLO-1, FLO1, 24 h constant exposure) was 7.5 ± 0.8 µM; in [3] (Homo sapiens, FLO-1, FLO1, 72 h constant exposure) it was 1.9 ± 1.1 µM. In the test with OE21 cells [5] (Ru1 21 μM or dppz 7 μM during second (IdU) pulse, 30 min), the “increase in completely stalled/terminated replication forks (CldU tract only) compared to mock-treated” value was “three-fold”. The “greater levels of stalled forks than Ru1” value in the test on OE21 cells [5] (dppz 7 μM vs Ru1 21 μM) is reported as “two-fold”. Also, the cell-cycle response entry in the test with OE21 cells [6] was “cells accumulated in G1 or early S phase”.
In the case of `N.N.[Cl][Pt][Cl]` [Cisplatin, cisplatin], the S.F. with OE21 cells [7] (OE21, IR 0 Gy) amounted to 1.000; with OE21 cells [7] (OE21, IR 2 Gy) it was 0.587; with OE21 cells [7] (OE21, IR 4 Gy), 0.320; with OE21 cells [7] (OE21, IR 6 Gy), 0.159; in the test with OE21 cells [7] (OE21, IR 8 Gy) it was 0.049; with FLO-1 cells (FLO-1, IR 0 Gy), 0.929. The S.F. is listed as 0.340 with FLO-1 cells (FLO-1, IR 2 Gy); 0.080 in the test with FLO-1 cells (FLO-1, IR 4 Gy); 0.007 in the test with FLO-1 cells (FLO-1, IR 6 Gy); 0.993 in the test on OE33 cells (OE33, IR 0 Gy); 0.280 in the test on OE33 cells (OE33, IR 2 Gy); 0.077 in the test on OE33 cells (OE33, IR 4 Gy). Besides, the S.F. with OE33 cells (OE33, IR 6 Gy) was determined as 0.022; in the test on OE33 cells (OE33, IR 8 Gy) it was 0.005. The IC50 in test [4] (24 h constant exposure) was 21.5 ± 5 µM; in [4] (72 h constant exposure), 15.8 ± 2 µM; in test [1] (OE21, 24 h constant exposure), 22.6 ± 3.6 µM; in test [1] (OE21, 72 h constant exposure) it was 6.3 ± 0.6 µM; in test [2] (OE33, 24 h constant exposure), 11 ± 1.4 µM; in test [2] (OE33, 72 h constant exposure), 3.25 ± 1 µM. Besides, the IC50 worked out at 26.5 ± 0.7 µM in [3] (FLO1, 24 h constant exposure) and 4.7 ± 0.7 µM in test [3] (FLO1, 72 h constant exposure). Also, the “dose modification factor (DMF) at surviving fraction of 0.1” value in test [8] is on record as 1.05–1.44.
